Laboratory results from PubChem BioAssay AID330 (DTP/NCI, 2004).
“And” between values parts separate entries of the source, which are not always exact repeats. Equal values may be shown once. Toxic doses and inconclusive results are not listed. Rule for the calls: active = survival T/C of 150% or more; inactive = T/C below 125% in these data.

System: P388 leukemia ip, CD2F1 mice, survival T/C
Assay: NCI In Vivo Anticancer Drug Screen. Data for tumor model P388 Leukemia (intraperitoneal) in CD2F1 (CDF1) mice
Conditions: endpoint: median survival time, higher = longer survival
Procedure, shortened: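 Mice carrying the transplanted tumor received test compound or vehicle. Survival was recorded in each group, and the value is the treated-group measurement divided by that of the vehicle-treated control group.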

[1] = dose: 25.0 mg/kg/injection, schedule: Q01DX009 (ip), vehicle: distilled water + Tween-80
[2] = dose: 50.0 mg/kg/injection, schedule: Q01DX009 (ip), vehicle: distilled water + Tween-80
[3] = dose: 100.0 mg/kg/injection, schedule: Q01DX009 (ip), vehicle: distilled water + Tween-80
[4] = dose: 50.0 mg/kg/injection, schedule: Q01DX009 (ip), vehicle: saline with Tween-80
[5] = dose: 25.0 mg/kg/injection, schedule: Q01DX009 (ip), vehicle: other
[6] = dose: 50.0 mg/kg/injection, schedule: Q01DX009 (ip), vehicle: other
[7] = dose: 100.0 mg/kg/injection, schedule: Q01DX009 (ip), vehicle: other
[8] = dose: 200.0 mg/kg/injection, schedule: Q01DX009 (ip), vehicle: other
[9] = dose: 60.0 mg/kg/injection, schedule: Q01DX005 (ip), vehicle: saline with Tween-80

Measured: T/C

CNC(=O)OCc1cn(-c2ccc(Cl)c(Cl)c2)nc1COC(=O)NC
inactive: dose: 0.05 mg/kg/injection, schedule: Q01DX009 (ip), vehicle: distilled water + Tween-80 103 % of control | dose: 0.1 mg/kg/injection, schedule: Q01DX009 (ip), vehicle: distilled water + Tween-80 86 % of control | dose: 0.2 mg/kg/injection, schedule: Q01DX009 (ip), vehicle: distilled water + Tween-80 94 % of control | dose: 0.4 mg/kg/injection, schedule: Q01DX009 (ip), vehicle: distilled water + Tween-80 99 % of control | dose: 3.12 mg/kg/injection, schedule: Q01DX009 (ip), vehicle: distilled water + Tween-80 88 % of control | [1] 89 % of control | [2] 92 % of control | [3] 90 % of control

c1ccc(-c2ccccc2NC2=NCCO2)cc1
inactive: dose: 12.5 mg/kg/injection, schedule: Q01DX009 (ip), vehicle: saline with Tween-80 104 % of control | dose: 25.0 mg/kg/injection, schedule: Q01DX009 (ip), vehicle: saline with Tween-80 104 % of control | [4] 95 % of control

COc1cc2cc[n+](C)c(C)c2cc1OC
inactive: dose: 12.5 mg/kg/injection, schedule: Q01DX009 (ip), vehicle: distilled water + Tween-80 111 % of control | [1] 111 % of control and 120 % of control | [2] 121 % of control and 124 % of control | [3] 100 % of control and 118 % of control

COc1ccccc1N(CCCO)C(=S)Nc1ccccc1
inactive: [5] 105 % of control | [6] 110 % of control | [7] 122 % of control | [8] 111 % of control | dose: 400.0 mg/kg/injection, schedule: Q01DX009 (ip), vehicle: other 111 % of control

[CH2+][B-]1(C)n2ccc[n+]2[B-](C)(C)[n+]2cccn21
inactive: [9] 90 % of control | dose: 120.0 mg/kg/injection, schedule: Q01DX005 (ip), vehicle: saline with Tween-80 98 % of control | dose: 240.0 mg/kg/injection, schedule: Q01DX005 (ip), vehicle: saline with Tween-80 93 % of control

O=C1NCCN=C1Cc1ccccc1
inactive: dose: 100.0 mg/kg/injection, schedule: Q04DX002 (ip), vehicle: saline with Tween-80 93 % of control | dose: 200.0 mg/kg/injection, schedule: Q04DX002 (ip), vehicle: saline with Tween-80 100 % of control | dose: 400.0 mg/kg/injection, schedule: Q04DX002 (ip), vehicle: saline with Tween-80 95 % of control

[N-]=[N+]=NCC(=O)N1c2ccccc2Sc2ccccc21
inactive: [5] 108 % of control | [6] 103 % of control | [7] 95 % of control | [8] 108 % of control

Nc1nc2ncc(CNc3ccc(C(=O)NC(CCC(=O)O)C(=O)O)cc3)cc2c(=O)[nH]1 (configuration not stated)
inactive: dose: 50.0 mg/kg/injection, schedule: Q01DX005 (ip), vehicle: saline with Tween-80 100 % of control | dose: 100.0 mg/kg/injection, schedule: Q01DX005 (ip), vehicle: saline with Tween-80 117 % of control | dose: 200.0 mg/kg/injection, schedule: Q01DX005 (ip), vehicle: saline with Tween-80 102 % of control

N#CC1C(=O)NC(=O)C(C#N)C1c1ccc(Cl)cc1 (configuration not stated)
inactive: dose: 50.0 mg/kg/injection, schedule: Q01DX009 (ip), vehicle: Klucel (hydroxypropylcellulose) (HPC) 101 % of control | dose: 100.0 mg/kg/injection, schedule: Q01DX009 (ip), vehicle: Klucel (hydroxypropylcellulose) (HPC) 100 % of control | dose: 200.0 mg/kg/injection, schedule: Q01DX009 (ip), vehicle: Klucel (hydroxypropylcellulose) (HPC) 101 % of control

NC(N)=O.NC(N)=O.NC(N)=O.NC(N)=O.NC(N)=O.NC(N)=O.[Cr]
inactive: dose: 3.13 mg/kg/injection, schedule: Q04DX003 (ip), vehicle: saline 98 % of control | dose: 6.25 mg/kg/injection, schedule: Q04DX003 (ip), vehicle: saline 101 % of control | dose: 12.5 mg/kg/injection, schedule: Q04DX003 (ip), vehicle: saline 101 % of control and 102 % of control | dose: 25.0 mg/kg/injection, schedule: Q04DX003 (ip), vehicle: saline 103 % of control

O=P1(CNc2ccccc2)CN(c2ccccc2)CN(c2ccccc2)C1
inactive: dose: 12.5 mg/kg/injection, schedule: Q01DX001 (ip), vehicle: saline with Tween-80 100 % of control | dose: 25.0 mg/kg/injection, schedule: Q01DX001 (ip), vehicle: saline with Tween-80 100 % of control | dose: 50.0 mg/kg/injection, schedule: Q01DX001 (ip), vehicle: saline with Tween-80 100 % of control

CC(=O)N1c2ccccc2Sc2ccc3ccccc3c21
inactive: [4] 93 % of control | dose: 100.0 mg/kg/injection, schedule: Q01DX009 (ip), vehicle: saline with Tween-80 100 % of control | dose: 200.0 mg/kg/injection, schedule: Q01DX009 (ip), vehicle: saline with Tween-80 99 % of control

COc1cc2c3c4c1OCc1c5c(cc(c1-4)CC3[N+](C)(C)CC2)OCO5 (configuration not stated)
inactive: dose: 25.0 mg/kg/injection, schedule: Q01DX001 (ip), vehicle: saline 100 % of control

O=C(S)CC1(O)CCCCC1
inactive: dose: 100.0 mg/kg/injection, schedule: Q04DX003 (ip), vehicle: Klucel (hydroxypropylcellulose) (HPC) 99 % of control | dose: 200.0 mg/kg/injection, schedule: Q04DX003 (ip), vehicle: Klucel (hydroxypropylcellulose) (HPC) 100 % of control | dose: 400.0 mg/kg/injection, schedule: Q04DX003 (ip), vehicle: Klucel (hydroxypropylcellulose) (HPC) 96 % of control

CCN(CC)CCOC(=O)C(C(=O)OCCN(CC)CC)C1CCCC1
inactive: dose: 50.0 mg/kg/injection, schedule: Q01DX005 (ip), vehicle: saline 94 % of control | dose: 100.0 mg/kg/injection, schedule: Q01DX005 (ip), vehicle: saline 92 % of control | dose: 200.0 mg/kg/injection, schedule: Q01DX005 (ip), vehicle: saline 100 % of control

COC(=O)C1=C(C(=O)OC)C2(C)OC1c1ccccc12 (configuration not stated)
inactive: dose: 15.0 mg/kg/injection, schedule: Q01DX005 (ip), vehicle: saline with Tween-80 106 % of control | dose: 30.0 mg/kg/injection, schedule: Q01DX005 (ip), vehicle: saline with Tween-80 106 % of control | [9] 100 % of control and 102 % of control

O=C1c2ccccc2C(=O)C1c1cc(Cl)c(O)c(Cl)c1
inactive: dose: 50.0 mg/kg/injection, schedule: Q04DX002 (ip), vehicle: saline 100 % of control | dose: 50.0 mg/kg/injection, schedule: Q04DX002 (ip), vehicle: suspension in saline 99 % of control | dose: 100.0 mg/kg/injection, schedule: Q04DX002 (ip), vehicle: saline 117 % of control and 94 % of control | dose: 100.0 mg/kg/injection, schedule: Q04DX002 (ip), vehicle: suspension in saline 98 % of control | dose: 200.0 mg/kg/injection, schedule: Q04DX002 (ip), vehicle: saline 101 % of control and 117 % of control | dose: 200.0 mg/kg/injection, schedule: Q04DX002 (ip), vehicle: suspension in saline 100 % of control | dose: 400.0 mg/kg/injection, schedule: Q04DX002 (ip), vehicle: saline 96 % of control | dose: 400.0 mg/kg/injection, schedule: Q04DX002 (ip), vehicle: suspension in saline 100 % of control

CCCCCCCCC[N+]1([O-])CCOCC1
inactive: dose: 50.0 mg/kg/injection, schedule: Q01DX009 (ip), vehicle: saline 100 % of control | dose: 100.0 mg/kg/injection, schedule: Q01DX009 (ip), vehicle: saline 97 % of control | dose: 200.0 mg/kg/injection, schedule: Q01DX009 (ip), vehicle: saline 88 % of control
